Experimental data reported in publication PMC11149917, “Translational and Therapeutic Evaluation of RAS-GTP Inhibition by RMC-6236 in RAS-Driven Cancers” (Cancer Discovery, 2024).
Read-outs that look alike come from different tables or passages of the source.

Experiment: Mouse blood and tissue PK (LC/MS-MS)
Assay type: in vivo
Conditions: for AUC(0-t): read-out: Blood AUClast; for half-life: read-out: Blood t1/2 (converted)
Description: For single-dose PKPD study, mice were randomized and assigned into groups (n = 3/dose/time point). […] Blood and tissues, including the tumor, brain, colon, ear skin, and muscle, were harvested at indicated time points. […] The whole blood, tumor, brain, colon, and ear skin concentrations of RMC-6236 were determined using liquid chromatography–tandem mass spectrometry (LC/MS-MS) methods. […] After thorough mixing and centrifugation, the supernatant was diluted with water or directly analyzed on a Sciex 5500 or Sciex 6500+ triple quadrupole mass spectrometer equipped with an ACQUITY or Shimadzu UPLC system. […] Bioanalysis on blood and tissue samples from xenograft models was run at Pharmaron and Wuxi AppTec. Concentrations reported as below the quantification limit were treated as zero for PK analysis. PK parameters were calculated by noncompartmental analysis of the concentration–time profiles using Phoenix WinNonLin (version 8.3 Certara). Apparent terminal elimination half-life (t1/2) values were calculated as ln(2)/k, where k represents the terminal elimination rate constant. Area under the concentration–time curve (AUC) values were estimated using a linear trapezoidal method. AUClast values were calculated from the dosing time to the last quantifiable concentration. Maximum concentration (Cmax) was recorded as observed.

[1] = mouse, whole blood, po, 1 mg/kg, NCI-H441 #1 (1 mg/kg), QD x 28 days
[2] = mouse, whole blood, po, 3 mg/kg, NCI-H441 (3 mg/kg), single dose
[3] = mouse, whole blood, po, 5 mg/kg, NCI-H441 #1 (5 mg/kg), QD x 28 days
[4] = mouse, whole blood, po, 10 mg/kg, NCI-H441 #1 (10 mg/kg), QD x 28 days
[5] = mouse, whole blood, po, 10 mg/kg, NCI-H441 (10 mg/kg), single dose
[6] = mouse, whole blood, po, 25 mg/kg, HPAC (25 mg/kg), single dose
[7] = mouse, whole blood, po, 25 mg/kg, KP-4 (25 mg/kg), single dose
[8] = mouse, whole blood, po, 25 mg/kg, NCI-H358 (25 mg/kg), single dose
[9] = mouse, whole blood, po, 25 mg/kg, NCI-H441 #1 (25 mg/kg), QD x 28 days
[10] = mouse, whole blood, po, 25 mg/kg, NCI-H441 #2 (25 mg/kg), QD x 10 days
[11] = mouse, whole blood, po, 25 mg/kg, NCI-H441 (25 mg/kg), single dose
[12] = mouse, whole blood, po, 25 mg/kg, NCI-H2122 (25 mg/kg), single dose

Structure (SMILES): CCn1c(-c2cc(N3CCN(C)CC3)cnc2[C@H](C)OC)c2c3cc(ccc31)-c1csc(n1)C[C@H](NC(=O)[C@H]1C[C@@H]1C)C(=O)N1CCC[C@H](N1)C(=O)OCC(C)(C)C2 [RMC-6236]
- concentration at 4 h (mouse, whole blood, oral, 50 mg/kg, Model Validation Dataset, 50mg/kg_study6, 4 h, read-out: Blood Concentration): 1980 nM
- concentration at 8 h (mouse, whole blood, oral, 50 mg/kg, Model Validation Dataset, 50mg/kg_study6, 8 h, read-out: Blood Concentration): 1350 nM
- concentration at 24 h (mouse, whole blood, oral, 50 mg/kg, Model Validation Dataset, 50mg/kg_study6, 24 h, read-out: Blood Concentration): 22.4 nM
- concentration at 48 h (mouse, whole blood, oral, 50 mg/kg, Model Validation Dataset, 50mg/kg_study6, 48 h, read-out: Blood Concentration): 2.76 nM
- Cmax (mouse, whole blood, oral, 50 mg/kg, Naïve Mice #1 (50 mg/kg), single dose): 2960 ng/mL
- Cmax [1]: 79.2 ng/mL
- AUC(0-t) [1]: 384 ng·h/mL
- half-life [1]: 174 min
- Cmax [2]: 219 ng/mL
- AUC(0-t) [2]: 1180 ng·h/mL
- Cmax [3]: 286 ng/mL
- AUC(0-t) [3]: 1330 ng·h/mL
- half-life [3]: 245 min
- Cmax [4]: 533 ng/mL
- AUC(0-t) [4]: 2780 ng·h/mL
- half-life [4]: 193 min
- Cmax [5]: 520 ng/mL
- AUC(0-t) [5]: 3810 ng·h/mL
- half-life [5]: 176 min
- Cmax [6]: 1310 ng/mL
- AUC(0-t) [6]: 12000 ng·h/mL
- half-life [6]: 157 min
- Cmax [7]: 1460 ng/mL
- AUC(0-t) [7]: 12500 ng·h/mL
- half-life [7]: 157 min
- Cmax [8]: 1150 ng/mL
- AUC(0-t) [8]: 8720 ng·h/mL
- half-life [8]: 167 min
- Cmax [9]: 1250 ng/mL
- AUC(0-t) [9]: 6950 ng·h/mL
- half-life [9]: 208 min
- Cmax [10]: 1080 ng/mL
- AUC(0-t) [10]: 6660 ng·h/mL
- half-life [10]: 160 min
- Cmax [11]: 1250 ng/mL
- AUC(0-t) [11]: 9060 ng·h/mL
- half-life [11]: 187 min
- Cmax [12]: 1110 ng/mL
- AUC(0-t) [12]: 7930 ng·h/mL
- half-life [12]: 270 min
- RMC-6236 (nM) Tumor (sheet Ear Skin, model Capan-2, study Capan-2 #3_PHA 2023, 3 mg/kg, 48h): BQL
- RMC-6236 (nM) Tumor (sheet colon, Capan-2, Capan-2 #3_PHA 2023, 3 mg/kg, 24h): BQL
- RMC-6236 (nM) Tumor (sheet colon, Capan-2, Capan-2 #3_PHA 2023, 3 mg/kg, 48h): BQL
- RMC-6236 (nM) Tumor (sheet colon, Capan-2, Capan-2 #3_PHA 2023, 10 mg/kg, 48h): BQL
- RMC-6236 (nM) Tumor (sheet colon, Capan-2, Capan-2 #3_PHA 2023, 25 mg/kg, 48h): BQL
- RMC-6236 (nM) Tumor (sheet colon, Capan-2, Capan-2 #3_PHA 2023, 50 mg/kg, 48h): BQL
- RMC-6236 (nM) Tumor (sheet colon, Capan-2, Capan-2 #3_PHA 2023, 100 mg/kg, 48h): BQL
- RMC-6236 (nM) Tumor (sheet colon, KP-4, KP-4 #5, 25 mg/kg, 48h): BQL
